PMC3259047 (Molecular Neurodegeneration, 2011)
Like-named read-outs stand apart in the source and are kept apart here.

Experiments:
[1] = Octanol-water partition coefficient (logPoct) by fluorometry; format: physicochemical; conditions: n-octanol/distilled water, 100 μM, room temperature, mean ± S.E.M, three independent experiments
Method: Octanol-water partition coefficients (logPoct) were determined as described previously with modification. […] The samples were incubated at room temperature with a brief vortex every 5 min for 60 minutes. After centrifugation at 2,000 g for 10 min, octanol and water layers were separately transferred to microcentrifuge tubes. Concentrations were determined by fluorometry at an excitation wave length of 530/25 nm and an emission wave length of 590/30 nm using an ELISA reader (Biotek, Winooski, VT).

[2] = target: CAA deposits (cerebrovascular Aβ aggregates) (Homo sapiens, UniProt P05067); test: In situ saturation binding assay in fixed Tg2576 brain sections, fluorescence on CAA; design: species or system Tg2576 mice; conditions: 16 month-old Tg2576 fixed brain sections, intrinsic fluorescence, 30 min room temperature; read-out: Amyloid binding affinity (KD) on CAA (converted)
CAA deposits (cerebrovascular Aβ aggregates), sequence (P05067 672-711 limits assumed): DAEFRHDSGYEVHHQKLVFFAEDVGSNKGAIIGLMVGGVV
Method: (§1) Figure 5 In situ binding assay in Tg2576 brain sections. Sixteen month-old Tg2576 mice were perfused with PBS and brains were post-fixed in 4% paraformaldehyde. Coronal brain sections (40 μm thick) were washed three times with PBS and incubated with various concentrations of test compounds (4 sections/concentration; 6 concentrations/compound) at room temperature for 30 min. Brain sections were washed twice with PBS and 50% ethanol in PBS then cover-slipped. […] Scale bar: 100 μm. Fluorescent images of the sensorimotor cortex were taken and the fluorescent intensity on CAA (B) and neuritic plaques (C) was quantified. Saturation binding curves were plotted to obtain the binding affinity (KD) values (see Table 2).

neuritic plaques = target: T1, neuritic plaques (Homo sapiens, UniProt P05067); test: In situ saturation binding assay in fixed Tg2576 brain sections, fluorescence on neuritic plaques; design: species or system Tg2576 mice; conditions: 16 month-old Tg2576 fixed brain sections, intrinsic fluorescence, 30 min room temperature; read-out: Amyloid binding affinity (KD) on neuritic plaques
T1 construct: Aβ1-42 (the predominant species in neuritic plaques); from tissue; host or cells: brain of 16-month-old Tg2576 transgenic mice
T1 sequence (P05067 672-713 limits assumed): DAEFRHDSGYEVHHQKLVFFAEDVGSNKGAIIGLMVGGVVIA
Method: as §1

[3] = test system: cerebrovascular Aβ deposits and neuritic plaques; test: Fluorescent staining of fixed aged Tg2576 brain sections; format: binding; conditions: fixed brain sections of aged Tg2576 mice; 1 μM resorufin, 2 μM methoxy-X34
Method: Scale bars in A-D: 100 μm.
Tg2576 and littermate wild-type mice at 12-16 months of age were anesthetized with isoflurane and transcardially perfused with PBS. Brains were removed, post-fixed overnight in 4% paraformaldehyde in 0.1 M phosphate buffer (pH 7.4) at 4°C, and preserved in 30% sucrose in 0.1 M phosphate buffer at 4°C. Brains were sectioned coronally (40 μm) on a freezing sliding microtome as described previously. […] Brain sections were washed three times with PBS and once with 50% ethanol in PBS for 5 min each. After three more PBS washes, brain sections were mounted on a slide glass and cover-slipped with Vectashield mounting media (Vector laboratories, Burlingame, CA). Fluorescent staining was visualized using a Nikon Eclipse ME600 digital video microscopy system (Nikon Instruments Inc., Melville, NY) and MetaMorph imaging software (Molecular Devices, Sunnyvale, CA). Cross-sectional area covered by CAA vessels and parenchymal plaques were quantified using ImageJ software (National Institutes of Health, Bethesda, MD) as previously described.

[4] = design: method as in Klunk et. al. [51]; conditions: ref Klunk et. al. [51]; cited from earlier work
[5] = test system: 3D6-positive cerebral arterioles and neuritic plaques; test: Fluorescent staining of paraffin-embedded human AD brain sections (3D6 co-labeling); format: binding; conditions: human AD cortical sections, 1 μM resorufin
[6] = test system: CAA amyloid deposits and neuritic plaques; test: In vivo live imaging through closed cranial window in aged Tg2576 mice; conditions: 6 mg/kg i.p. per legend and methods

Compound | logPoct [1] | Kd [2] [µM] | Kd (neuritic plaques) [µM] | logP [1] | Crossing of the BBB (CAA deposits; mouse, in vivo) | logPoct ([1]; listed as benzyloxy-resorufin) | Binding to CAA-laden vessels versus neuritic plaques (fluorescent staining) [3] | logPoct [4] | Staining of 3D6-positive amyloid deposits [5] | Visualization of CAA deposits after intravenous administration (CAA deposits; i.v. up to 50 mg/kg, aged Tg2576 mice (15 mo)) | Live fluorescent labeling of amyloid deposits by methoxy-X04 [6]
O=c1ccc2nc3ccc(OCc4ccccc4)cc3oc-2c1 [Benzyloxyresorufin, benzyloxy-resorufin] | 2.206 ± 0.104 | 0.473 ± 0.082 | > 10 |  |  | 2.21 | preferentially bound CAA-laden vessels but not neuritic plaques |  |  |  | 
CCOc1ccc2nc3ccc(=O)cc-3oc2c1 [Ethoxyresorufin, ethoxy-resorufin] | 1.94 | 0.247 ± 0.135 | > 10 | 1.94 ± 0.137 |  |  | preferentially bound CAA-laden vessels but not neuritic plaques |  |  |  | 
COc1cc(/C=C/c2ccc(O)cc2)ccc1/C=C/c1ccc(O)cc1 [methoxy-X04] |  |  |  |  |  |  |  |  |  |  | labeled Aβ aggregates in both cerebral arteries and parenchymal neuritic plaques

Continued, in another order:

logPoct [1] | Kd [2] [µM] | Kd (neuritic plaques) [µM] | logP [1] | Crossing of the BBB (CAA deposits; mouse, in vivo) | Compound | logPoct ([1]; listed as benzyloxy-resorufin) | Binding to CAA-laden vessels versus neuritic plaques (fluorescent staining) [3] | logPoct [4] | Staining of 3D6-positive amyloid deposits [5] | Visualization of CAA deposits after intravenous administration (CAA deposits; i.v. up to 50 mg/kg, aged Tg2576 mice (15 mo)) | Live fluorescent labeling of amyloid deposits by methoxy-X04 [6]
 | 0.325 | 0.219 |  |  | COc1cc(C=Cc2ccc(O)c(C(=O)O)c2)ccc1C=Cc1ccc(O)c(C(=O)O)c1 [Methoxy-X34, reference compound] |  | visualized both cerebrovascular Aβ deposits and neuritic plaques | 0.19 |  |  | 
0.43 |  |  | 0.427 ± 0.036 | failed to cross the BBB | O=c1ccc2nc3ccc(O)cc3oc-2c1 [Resorufin, 7-hydroxy-3H-phenoxazin-3-one] |  | strongly bind CAA-laden cerebral arterioles but not parenchymal neuritic plaques |  | marked resorufin-positive staining was noted in the 3D6-positive cerebral arterioles | failed to visualize CAA deposits | 
